The NIST ThermoML archive (doi:10.1021/acs.jced.5b00256)
± gives the expanded uncertainty stated by the source.

Key:
[1] = relative permittivity at various frequencies (dimensionless); xn = mol fraction of the nth substance listed; conditions: 100 kPa, Liquid, Frequency=2 MHz, Parallel plate capacitor
[2] = refractive index (Na D-line) (dimensionless); xn = mol fraction of the nth substance listed; conditions: 100 kPa, Liquid, Standard Abbe refractometry

COc1cccc(Br)c1 [1-bromo-3-methoxybenzene] + CCCO
Conditions	refractive index, 303.15 K	refractive index, 313.15 K	refractive index, 323.15 K	refractive index, 333.15 K	relative permittivity, 303.15 K	relative permittivity, 313.15 K	relative permittivity, 323.15 K	relative permittivity, 333.15 K
[1], x2 = 0	–	–	–	–	7.01 ± 0.6	6.85 ± 0.6	6.74 ± 0.6	6.6 ± 0.6
[1], x2 = 0.107	–	–	–	–	7.18 ± 0.6	7.03 ± 0.6	6.89 ± 0.6	6.7 ± 0.6
[1], x2 = 0.206	–	–	–	–	7.55 ± 0.6	7.39 ± 0.6	7.15 ± 0.6	6.95 ± 0.6
[1], x2 = 0.296	–	–	–	–	8.05 ± 0.6	7.83 ± 0.6	7.55 ± 0.6	7.23 ± 0.6
[1], x2 = 0.38	–	–	–	–	8.67 ± 0.6	8.39 ± 0.6	8.08 ± 0.6	7.65 ± 0.6
[1], x2 = 0.457	–	–	–	–	9.46 ± 0.6	9.11 ± 0.6	8.68 ± 0.6	8.2 ± 0.6
[1], x2 = 0.529	–	–	–	–	10.27 ± 0.6	9.87 ± 0.6	9.4 ± 0.6	8.74 ± 0.6
[1], x2 = 0.596	–	–	–	–	11.08 ± 0.6	10.61 ± 0.6	10.11 ± 0.6	9.38 ± 0.6
[1], x2 = 0.658	–	–	–	–	12.04 ± 0.6	11.56 ± 0.6	10.94 ± 0.6	10.15 ± 0.6
[1], x2 = 0.716	–	–	–	–	12.93 ± 0.6	12.39 ± 0.6	11.71 ± 0.6	10.89 ± 0.6
[1], x2 = 0.771	–	–	–	–	13.98 ± 0.6	13.42 ± 0.6	12.88 ± 0.6	11.8 ± 0.6
[1], x2 = 0.822	–	–	–	–	15.14 ± 0.6	14.52 ± 0.6	13.63 ± 0.6	12.43 ± 0.6
[1], x2 = 0.871	–	–	–	–	16.23 ± 0.6	15.6 ± 0.6	14.65 ± 0.6	13.33 ± 0.6
[1], x2 = 0.916	–	–	–	–	17.33 ± 0.6	16.62 ± 0.6	15.64 ± 0.6	14.3 ± 0.6
[1], x2 = 0.959	–	–	–	–	18.58 ± 0.6	17.66 ± 0.6	16.7 ± 0.6	15.22 ± 0.6
[2], x2 = 0	1.56 ± 0.002	1.558 ± 0.002	1.553 ± 0.002	1.55 ± 0.002	–	–	–	–
[2], x2 = 0.107	1.555 ± 0.002	1.552 ± 0.002	1.548 ± 0.002	1.546 ± 0.002	–	–	–	–
[2], x2 = 0.206	1.544 ± 0.002	1.54 ± 0.002	1.535 ± 0.002	1.532 ± 0.002	–	–	–	–
[2], x2 = 0.296	1.53 ± 0.002	1.528 ± 0.002	1.523 ± 0.002	1.519 ± 0.002	–	–	–	–
[2], x2 = 0.38	1.517 ± 0.002	1.515 ± 0.002	1.512 ± 0.002	1.508 ± 0.002	–	–	–	–
[2], x2 = 0.457	1.504 ± 0.002	1.501 ± 0.002	1.5 ± 0.002	1.497 ± 0.002	–	–	–	–
[2], x2 = 0.529	1.493 ± 0.002	1.489 ± 0.002	1.488 ± 0.002	1.484 ± 0.002	–	–	–	–
[2], x2 = 0.596	1.484 ± 0.002	1.482 ± 0.002	1.477 ± 0.002	1.474 ± 0.002	–	–	–	–
[2], x2 = 0.658	1.473 ± 0.002	1.468 ± 0.002	1.464 ± 0.002	1.461 ± 0.002	–	–	–	–
[2], x2 = 0.716	1.461 ± 0.002	1.458 ± 0.002	1.449 ± 0.002	1.447 ± 0.002	–	–	–	–
[2], x2 = 0.771	1.447 ± 0.002	1.444 ± 0.002	1.437 ± 0.002	1.435 ± 0.002	–	–	–	–
[2], x2 = 0.822	1.435 ± 0.002	1.429 ± 0.002	1.425 ± 0.002	1.423 ± 0.002	–	–	–	–
[2], x2 = 0.871	1.421 ± 0.002	1.418 ± 0.002	1.413 ± 0.002	1.41 ± 0.002	–	–	–	–
[2], x2 = 0.916	1.41 ± 0.002	1.405 ± 0.002	1.401 ± 0.002	1.398 ± 0.002	–	–	–	–
[2], x2 = 0.959	1.396 ± 0.002	1.392 ± 0.002	1.388 ± 0.002	1.385 ± 0.002	–	–	–	–
